Test results from ChEMBL document CHEMBL3507680, “University of Dundee, Gates Library screen for HepG2 cell viability”.

Assay: Human HepG2 cell viability assay in 384 well format
Assay type: toxicity, cell-based
Set-up: dose 125 nL, time 70.5 hour; concentration not given beside the values
Details: HepG2 cells, read-out: Inhibition

| Structure (SMILES) | cytotoxicity at 70.5 h |
| --- | --- |
| O=C1CC(c2ccccc2F)c2c(n3ccsc3nc2=O)N1 (stereo not given) | -14% |
| CCOc1ccc(C2CC(=O)Nc3c2c(=O)nc2sccn32)cc1 (stereo not given) | -31.7% |
| COc1cc(CC(O)CO)c(OC)c2c1OCO2 (stereo not given) | 30.2% |
| COC(=O)CNC(=O)CSCc1nc(O)c2c(C)c(C)sc2n1 | -18.2% |
| CC1CCc2nc(O)c(C(=O)NCCN(C)C)cc2C1 (stereo not given) | -18.1% |
| O=C1CSC(c2ccsc2)c2sccc2N1 (stereo not given) | -18.3% |
| O=C(Cn1nc(-c2cccs2)ccc1=O)N1CCCCCC1 | -24.9% |
| Cc1ccc(C)c(-c2csc(N)c2C#N)c1 | -3.45% |
| O=c1[nH]c2c(c(=O)n1C1CCCCC1)CCC2Nc1ccccc1 (stereo not given) | 6.54% |
| CCCN1C(=O)CC(N2CCN(c3ccc(F)cc3)CC2)C1=O (stereo not given) | 7.23% |
| Cc1cc2nc(SCC(=O)N3CCCC3)n(C(C)C)c(=O)c2[nH]1 | 14.9% |
| CCc1ccc(-n2c(=O)[nH]c3nc(N4CCSCC4)ncc3c2=O)cc1 | -8.65% |
| COc1cccc(N2CCN(CC(O)c3cc(C)ccc3C)CC2)c1 (stereo not given) | 30.4% |
| CC(C)n1c(=O)nc2n1C(=O)N(c1ccccc1)C2 | -5.73% |
| CCn1nccc1CN(C)C(=O)Cn1nc(C)cc1C | 16.1% |
| CCC(=O)N1CCCCC1c1nc(N(C)C)ncc1-c1cc(C)no1 (stereo not given) | 1.06% |
| CN(C)C(=O)c1cccc(C2CNCCN2C)c1 (stereo not given) | -4.31% |
| CC(c1cc(O)nc(NC2CCCC2)n1)n1ncc2ccccc2c1=O (stereo not given) | -8.36% |
| CN(CC1(C)COC1)C(=O)c1cc(-c2cnn(C)c2)nc2ccccc12 | -6.09% |
| CNc1cccc(CC2COCCN(C(=O)c3cccnc3)C2)n1 (stereo not given) | -3.83% |
| O=C(c1cncs1)N1CCOCC(Cc2ccncn2)C1 (stereo not given) | -7.66% |
| CC1(C(=O)N2CCN(c3cnccn3)CC2)CNCCO1 (stereo not given) | 28.1% |
| CCn1ncc(S(=O)(=O)N[C@@H]2CC[C@@H](n3ccnc3)[C@@H]2O)c1C | -10.4% |

| Structure (SMILES) | cytotoxicity at 70.5 h |
| --- | --- |
| COCCNc1ncc(-c2cc(C)no2)c(-c2ccco2)n1 | 8.77% |
| CCOCCCNc1ncc(-c2onc(C)c2C)c(-c2ccco2)n1 | -10.1% |
| Cc1noc(-c2cnc(NCC3CCCO3)nc2-c2ccco2)c1C (stereo not given) | -7.96% |
| Cc1noc(-c2cnc(NC3CC3)nc2-c2ccco2)c1C | -14.9% |
| Cc1c[nH]c(C2CCCN2C(=O)CCc2c(C)n[nH]c2C)n1 (stereo not given) | -11.3% |
| CNC(=O)CCc1cc(C)nc(C2CCN(CC(=O)N(C)C)CC2)c1 | -6.28% |
| CN(C)c1cncc(C2CCCN(c3cnccn3)C2)n1 (stereo not given) | -6.42% |
| c1cncc(CN2CCC(c3csc4nccn34)CC2)c1 | -4.71% |
| O=S(=O)(N1CCOCC1)N1CCCC(c2ccccn2)C1 (stereo not given) | -8.61% |
| Cc1c[nH]nc1C1CCN(c2cnccn2)C1 (stereo not given) | 5.06% |
| CNC(=O)CCc1cc(C)nc(C2CCN(c3cnccn3)CC2)c1 | 0.777% |
| CCN(CC)C(=O)CN1CCCC1c1nc(C)c2c(n1)N(C)C(=O)CC2 (stereo not given) | -7.02% |
| O=C(C1CC1)N1C[C@H]2CCCN(S(=O)(=O)c3cccc(F)c3)[C@H]2C1 | 3.8% |
| CSc1nnc(CNC(=O)Nc2ccccc2F)n1C | -7.23% |
| CCn1c(SC)nnc1C1CCN(C(=O)N2CCCC2)CC1 | -4.95% |
| CSc1nnc(C2CCN(C(=O)N3CCOCC3)CC2)n1C(C)C | 7.97% |
| CS(=O)(=O)c1cc(Cl)cnc1C1CCN(C(=O)C2CCCO2)CC1 (stereo not given) | -5.11% |
| Cn1cc(C2=NOC(C(=O)NC3(c4ccccc4)CCCC3)C2)cn1 (stereo not given) | -3.59% |
| COCCNc1cc(C2CCCNC2)ccn1 (stereo not given) | -7.3% |
| CN(C)[C@@H]1CN(Cc2cccnc2)C[C@H]1c1cn(C)c2ccccc12 | -2.36% |
| Cc1ncc(CN2CCCC(O)(c3ccc(F)cc3)CC2)n1C (stereo not given) | -5.42% |
| Cc1nc[nH]c1CN(Cc1ccccc1F)C1CC(C)(C)NC(C)(C)C1 | -2.5% |
